Assay results reported in patent publication US10981881B2, “FXR (NR1H4) modulating compounds” (Gilead Sciences, Inc., priority 2016, dated 2021).

Columns and labels:
[1] = Metabolite ID assay in human liver microsomes; type: in vitro ADME; settings: human liver microsomes 1 mg/mL, 1 mM NADPH, 0, 30, 60 minutes
Method: The metabolic stability of Example 3 and Comparative Example 1 in human liver microsomes was conducted according to the following procedure. Human liver microsomes (35 μL protein concentration 20 mg/mL), 350 μL of 100 mM potassium phosphate buffer (pH 7.4), 245 μL of deionized water and 0.7 μL of compound stock solution (5 mM) were combined in a 1.5 mL microcentrifuge tube. The tube was sealed and gently vortexed for 10 seconds, then placed in an Eppendorf ThermoMixer C and pre-warmed at 37° C. with shaking at 1100 rpm for 5 minutes.
NADPH solution (70 μL; 10 mM in water) was added while shaking, the mixture was aspirated several times with pipet, and 200 μL was removed to a fresh 1.5 mL microcentrifuge tube on ice containing 200 μL of cold acetonitrile. […]
The chilled aliquots were centrifuged at 14,300 rpm in a microcentrifuge for 10 minutes at 10° C., then the supernatant was transferred to a deepwell (1 mL) 96 well plate and sealed with a silicon mat. […] 20 μL samples were analyzed by UPLC-MS in order to identify and quantify the metabolites (Agilent 1290 G4220 binary pump UPLC with Agilent G1316 TCC column oven; Waters Acquity UPLC BEH C18 (130 Å pore size, 1.7 μm particle size, 2.1×50 mm) column held at 40° C.; Agilent 1290 G4212 DAD diode array with wavelength range 190 to 400 nm; Thermo Electron Orbitrap Elite mass spectrometer in FTMS positive mode). […]

[2] = test system: FGF19; settings: cynomolgus monkey, in vivo, po, 300 mg/kg
Method: In vivo pharmacodynamics of a representative compound of Formula (I) and a comparative example compound were determined as follows.
Each dosing group consisted of three male Cynomolgus monkeys. At dosing, the animals weighed between 2.5 and 4.4 kg.
The test articles were administered to the monkeys via oral gavage at 5 mL/kg. Prior to withdrawal, the gavage tube was flushed with approximately 10 mL of water.
Venous blood samples were taken at specified time points after dosing from each animal. The blood samples were collected and transferred into tubes containing potassium (K2) EDTA anticoagulant.
The FGF19 ELISA assay kit from BioVendor (product number RD191107200R) was used to determine FGF19 concentrations in the collected blood samples.
An aliquot of 50 μL of each plasma sample from the 10 and 30 mg/kg dosing groups and the t=0 samples from the 100 and 300 mg/kg groups were treated with 200 μL of acetonitrile (ACN) containing internal standard. […] Samples exceeding the calibration range of the instrument were diluted and re-analyzed. […]
An API 5000 triple quadrupole mass spectrometer from AB Sciex, Foster City, Calif. was used in multiple reaction monitoring mode to quantify the compounds.

Structure (SMILES) | formation of diol metabolite M1 [1] | maximal plasma AUC achieved [2] | plasma FGF19 Cmax ([2]; male) [ng/mL]
O=C(O)c1cnc(N2CC(O)(c3ccc(OCc4c(-c5c(Cl)cccc5Cl)noc4C4CC4)cc3Cl)C2)c(F)c1 [Comparative Example 1] | metabolized to a diol compound (M1) |  | 
O=C(O)c1cnc(N2CC(O)(c3ccc(OCc4c(-c5c(Cl)cc(F)cc5Cl)noc4C4CC4)cc3Cl)C2)c(F)c1 [Example 3, 6-(3-(2-chloro-4-((5-cyclopropyl-3-(2,6-dichloro-4-fluorophenyl)isoxazol-4-yl)methoxy)phenyl)-3-hydroxyazetidin-1-yl)-5-fluoronicotinic acid] |  | comparable | 16
